Measurements from ChEMBL document CHEMBL4825686, “HTS-based discovery and optimization of novel positive allosteric modulators of the α7 nicotinic acetylcholine receptor” (Eur J Med Chem, 2021).
Activity calls are given as the source filed them. No cut-off for these calls is given here.

Tests used:
[1] = Ratio of drug level in Wistar rat brain to plasma at 3 mg/kg, ip measured after 35 mins by HPLC-MS/MS analysis; type: ADME, organism-based; settings: read-out: BPR
[2] = Mutagenicity in Salmonella typhimurium TA98 in presence of rat liver S9 fraction by AMES test; type: toxicity, subcellular; settings: salmonella enterica subsp. enterica serovar typhimurium
[3] = Plasma concentration in NMRI mouse at 0.1 mg/kg, ip measured after 1 hr by HPLC-MS/MS analysis; type: ADME, organism-based
[4] = molecular target: GABA-A receptor; alpha-1/beta-3/gamma-2 (Homo sapiens) (UniProt P14867+P18507+P28472); assay: Activation of human alpha1beta3gamma2 GABAA receptor expressed in HEK293 cells assessed as enhancement of GABA induced channel current response at 1 to 10 uM measured after 7 to 10 mins at -80 mV holding potential by whole-cell patch clamp assay; type: cell-based; settings: dose 1-10 µM, time 7-10 min
[5] = molecular target: T1, Neuronal acetylcholine receptor subunit alpha-7 (Homo sapiens, UniProt P36544); assay: Positive allosteric modulation of human alpha7 nAChR expressed in HEK293 cells assessed as increase in peak current amplitude measured after 6 to 10 mins at -80 mV holding potential by automated whole cell patch clamp analysis; type: cell-based
T1 sequence (P36544 whole entry): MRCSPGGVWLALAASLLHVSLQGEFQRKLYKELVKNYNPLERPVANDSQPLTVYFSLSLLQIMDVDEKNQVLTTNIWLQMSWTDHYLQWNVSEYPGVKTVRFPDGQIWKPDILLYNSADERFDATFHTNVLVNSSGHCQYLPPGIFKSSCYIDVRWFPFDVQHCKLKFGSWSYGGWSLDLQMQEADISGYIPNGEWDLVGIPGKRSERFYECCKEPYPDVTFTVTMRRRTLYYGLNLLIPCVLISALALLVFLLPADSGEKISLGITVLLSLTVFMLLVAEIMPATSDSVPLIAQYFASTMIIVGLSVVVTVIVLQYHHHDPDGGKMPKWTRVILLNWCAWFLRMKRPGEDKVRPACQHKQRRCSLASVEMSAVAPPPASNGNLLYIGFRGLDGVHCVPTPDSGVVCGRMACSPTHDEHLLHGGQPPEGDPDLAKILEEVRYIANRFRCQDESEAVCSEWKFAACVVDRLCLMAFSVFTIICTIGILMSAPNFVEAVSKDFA

[6] = Mutagenicity in Salmonella typhimurium TA1537 in presence of rat liver S9 fraction by AMES test; type: toxicity, subcellular; settings: salmonella enterica subsp. enterica serovar typhimurium
[7] = Drug uptake in NMRI mouse brain at 3 mg/kg, ip measured after 1 hr by HPLC-MS/MS analysis; type: ADME, organism-based; settings: read-out: Ct
[8] = Drug uptake in NMRI mouse brain at 1 mg/kg, ip measured after 1 hr by HPLC-MS/MS analysis; type: ADME, organism-based; settings: read-out: Ct
[9] = Mutagenicity in Salmonella typhimurium TA100 in absence of rat liver S9 fraction by AMES test; type: toxicity; settings: salmonella enterica subsp. enterica serovar typhimurium
[10] = Metabolic stability in human liver microsomes assessed as intrinsic clearance at 1 uM measured per mg protein upto 40 mins; type: ADME, Microsome; settings: read-out: CLH
[11] = Ratio of drug level in NMRI mouse brain to plasma at 0.1 mg/kg, ip measured after 1 hr by HPLC-MS/MS analysis; type: ADME, organism-based; settings: read-out: BPR
[12] = Drug uptake in Wistar rat brain at 3 mg/kg, ip measured after 35 mins by HPLC-MS/MS analysis; type: ADME, organism-based; settings: read-out: Ct
[13] = Metabolic stability in Wistar rat liver microsomes assessed as intrinsic clearance at 1 uM measured per mg protein upto 40 mins; type: ADME, Microsome; settings: read-out: CLH
[14] = molecular target: T2, Neuronal acetylcholine receptor; alpha3/beta4 (Homo sapiens) (UniProt P30926+P32297); assay: Agonist activity at alpha3beta4 nAChR (unknown origin) upto 30 uM by automated Q-patch clamp assay; settings: dose microM <=30
[15] = molecular target: T1, Neuronal acetylcholine receptor subunit alpha-7; assay: Positive allosteric modulator activity at human alpha7 nAChR expressed in Flp-In-HEK293 cells co-expressing RIC-3 assessed as potentiation of PNU282987-induced calcium influx measured after 10 mins by FLIPR assay; type: cell-based, Flp-In-293; settings: read-out: EC50
[16] = Mutagenicity in Salmonella typhimurium TA98 in absence of rat liver S9 fraction by AMES test; type: toxicity; settings: salmonella enterica subsp. enterica serovar typhimurium
[17] = molecular target: T2, Neuronal acetylcholine receptor; alpha3/beta4 (Homo sapiens); assay: Positive allosteric modulator activity at alpha3beta4 nAChR (unknown origin) upto 10 uM by automated Q-patch clamp assay; settings: dose microM <=10
[18] = Drug uptake in Wistar rat brain at 10 mg/kg, ip measured after 35 mins by HPLC-MS/MS analysis; type: ADME, organism-based; settings: read-out: Ct
[19] = Drug uptake in NMRI mouse brain at 0.3 mg/kg, ip measured after 1 hr by HPLC-MS/MS analysis; type: ADME, organism-based; settings: read-out: Ct
[20] = molecular target: Sigma non-opioid intracellular receptor 1 (Homo sapiens) (UniProt Q99720); assay: Binding affinity to human recombinant sigma-1 receptor assessed as displacement of radioligand at 10 uM by displacement binding assay
Chain of Sigma non-opioid intracellular receptor 1 (Homo sapiens) (Q99720 whole entry): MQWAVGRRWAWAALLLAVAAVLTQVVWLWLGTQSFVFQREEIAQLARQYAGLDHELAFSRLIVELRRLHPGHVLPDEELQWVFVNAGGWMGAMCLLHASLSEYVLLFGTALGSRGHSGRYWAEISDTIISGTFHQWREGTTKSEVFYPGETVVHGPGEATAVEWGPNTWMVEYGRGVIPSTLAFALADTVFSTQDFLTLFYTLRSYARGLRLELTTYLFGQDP

[21] = Plasma concentration in NMRI mouse at 3 mg/kg, ip measured after 1 hr by HPLC-MS/MS analysis; type: ADME, organism-based
[22] = Ratio of drug level in Wistar rat brain to plasma at 1 mg/kg, ip measured after 35 mins by HPLC-MS/MS analysis; type: ADME, organism-based; settings: read-out: BPR
[23] = molecular target: T1, Neuronal acetylcholine receptor subunit alpha-7; assay: Positive allosteric modulation of human alpha7 nAChR expressed in HEK293 cells assessed as inhibition of choline-evoked current desensitization measured after 6 to 10 mins at -80 mV holding potential by automated whole cell patch clamp analysis; type: cell-based; settings: filed as positive allosteric modulator, time 6-10 min
[24] = Drug uptake in NMRI mouse brain at 0.1 mg/kg, ip measured after 1 hr by HPLC-MS/MS analysis; type: ADME, organism-based; settings: read-out: Ct
[25] = molecular target: GABA-A receptor; anion channel (Rattus norvegicus) (UniProt O09028+P15431+P18506+P18508+P19969+P20236+P23574+P23576+P28471+P28473+P30191+P62813+P63079+P63138+Q91ZM7+Q9ES14); assay: Displacement of [3H]flunitrazepam from GABAA receptor in Wistar rat brain without cerebellum at 10 uM by displacement binding assay; type: tissue-based
[26] = Plasma concentration in NMRI mouse at 10 mg/kg, ip measured after 1 hr by HPLC-MS/MS analysis; type: ADME, organism-based
[27] = molecular target: 5-hydroxytryptamine receptor 2B (Homo sapiens) (UniProt P41595); assay: Binding affinity to human recombinant 5-HT2B receptor assessed as displacement of radioligand at 10 uM by displacement binding assay
Chain of 5-hydroxytryptamine receptor 2B (Homo sapiens) (P41595 whole entry): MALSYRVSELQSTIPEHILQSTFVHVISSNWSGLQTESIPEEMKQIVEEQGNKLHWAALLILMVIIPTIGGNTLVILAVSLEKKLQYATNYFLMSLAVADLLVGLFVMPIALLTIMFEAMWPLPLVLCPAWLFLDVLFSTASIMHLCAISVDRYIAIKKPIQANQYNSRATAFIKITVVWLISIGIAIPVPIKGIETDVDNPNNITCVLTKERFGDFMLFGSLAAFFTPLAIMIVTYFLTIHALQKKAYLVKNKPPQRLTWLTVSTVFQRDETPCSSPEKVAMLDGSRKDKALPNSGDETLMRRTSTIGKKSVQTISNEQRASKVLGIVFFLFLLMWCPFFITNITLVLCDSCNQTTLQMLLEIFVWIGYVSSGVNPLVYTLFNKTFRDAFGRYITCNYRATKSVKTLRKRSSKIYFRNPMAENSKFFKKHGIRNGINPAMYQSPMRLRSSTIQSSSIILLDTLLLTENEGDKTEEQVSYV

[28] = Plasma concentration in Wistar rat at 10 mg/kg, ip measured after 35 mins by HPLC-MS/MS analysis; type: ADME, organism-based
[29] = molecular target: GABA-A receptor; alpha-5/beta-3/gamma-2 (Homo sapiens) (UniProt P18507+P28472+P31644); assay: Activation of human alpha5beta3gamma2 GABAA receptor expressed in HEK293 cells assessed as enhancement of GABA induced channel current response at 1 to 10 uM measured after 7 to 10 mins at -80 mV holding potential by whole-cell patch clamp assay; type: cell-based; settings: dose 1-10 µM, time 7-10 min
[30] = Plasma concentration in NMRI mouse at 0.3 mg/kg, ip measured after 1 hr by HPLC-MS/MS analysis; type: ADME, organism-based
[31] = Lipophilicity, logP of the compound; type: physicochemical; settings: octanol/water
[32] = Mutagenicity in Escherichia coli WP2 uvrA in presence of rat liver S9 fraction by AMES test; type: toxicity, subcellular
[33] = Mutagenicity in Salmonella typhimurium TA100 in presence of rat liver S9 fraction by AMES test; type: toxicity, subcellular; settings: salmonella enterica subsp. enterica serovar typhimurium
[34] = molecular target: Glutamate NMDA receptor (Rattus norvegicus) (UniProt P35439+Q00959+Q00960+Q00961+Q62645+Q8VHN2+Q9R1M7); assay: Displacement of [3H]CGP39653 from NMDA receptor in Wistar rat cerebral cortex at 10 uM by displacement binding assay; type: tissue-based
[35] = Efflux ratio of apparent permeability from basolateral to apical side over apical to basolateral side in vinblastine-treated human Caco-2 cells expressing P-glycoprotein at 10 uM incubated for 120 mins by HPLC analysis; type: ADME
[36] = Drug uptake in NMRI mouse brain at 10 mg/kg, ip measured after 1 hr by HPLC-MS/MS analysis; type: ADME, organism-based; settings: read-out: Ct

Kp at 35 min [1]: 3.8 | concentration at 1 h [3]: 2.1 nM | Activity [4]: < 7% | EC50 [5]: 710 nM | concentration at 1 h [7]: 64 nM | concentration at 1 h [8]: 39 nM | microsomal CLint at 1 µM [10]: 15 µL/min/mg | Kp at 1 h [11]: 1.32 | concentration at 35 min [12]: 207 nM | microsomal CLint at 1 µM [13]: 158 µL/min/mg | Activity [14]: inactive | EC50 [15]: 90 nM | Activity [17]: inactive | concentration at 35 min [18]: 657 nM | concentration at 1 h [19]: 5.5 nM | inhibition [20]: 55% | concentration at 1 h [21]: 37 nM | Kp at 35 min [22]: 4.93 | concentration at 1 h [24]: 3.1 nM | inhibition [25]: < 15% | concentration at 1 h [26]: 142 nM | inhibition [27]: 98% | concentration at 35 min [28]: 196 nM | Activity [29]: < 7% | concentration at 1 h [30]: 4.3 nM | logP [31]: 3.7 | inhibition [34]: < 15% | efflux ratio at 2 h, 10 µM [35]: 0.7 | concentration at 1 h [36]: 233 nM
SMILES: Cc1ccc(CN2CCN(C(=O)C(=O)Nc3ccc4c(ccn4C)c3)CC2)cc1
Activity [2]: Non-Toxic | Activity [6]: Non-Toxic | Activity [9]: Non-Toxic | Activity [16]: Non-Toxic | Activity [23]: Active | Activity [32]: Non-Toxic | Activity [33]: Non-Toxic
